Where two headings read alike, the source gives them in different places. Where a SMILES comes first, the peptide text is derived from it. Bridges are numbered along the chain shown (N, C = ends). Roman numbers before positions name the chains, in order. Where no end group is shown, it is not given here. [ ]: non-standard residue; d: D form. Ahx = NCCCCCC(=O)O
Assays:
[1] = tested on: TNFα production in RAW264.7 cells; assay: ELISA of TNFα production in LPS-treated RAW264.7 cells; format: cell-based, mouse; details: RAW264.7, peptide 30 min then LPS 10 ng/mL 24 h
[2] = tested on: CaMKII Thr286 autophosphorylation; assay: Western blot of LPS-induced CaMKII activation in RAW264.7 cells (Fig. S2b); format: cell-based, mouse
Experimental: (§1) a LPS promotes tumor necrosis factor α (TNFα) production in RAW264.7 cells. RAW264.7 cells were treated with the indicated concentration of LPS for 24 h. The amount of TNFα produced in the culture medium was measured by ELISA. Data are presented as a percentage of the control value without peptide (n = 3, mean ± SEM). **P < 0.01; ***P < 0.001 (compared with the control by ANOVA followed by one-sided Dunnett’s test). b The effects of M6 and mM3 on the activation of CaMKII in RAW264.7 cells. RAW264.7 cells were incubated with the indicated concentration of each peptide for 30 min, and then treated with 10 ng/ml LPS for 20 min. The cell lysates were analyzed by western blot using phosphorylated […] specific antibody to detect the activation of CaMKII (upper panel). Data are representative of three independent experiments. […] RAW264.7 cells were incubated with the indicated concentration of each peptide for 30 min, and then treated with10 ng/ml LPS for 3 h. The mRNA level of each proinflammatory cytokine was analyzed by quantitative RT-qPCR. Data are presented as the amount of each mRNA relative to that of LPS treatment only (n = 3, mean ± SEM). **P < 0.01, ***P < 0.001 (compared with the control by ANOVA followed by one-sided Tukey’s test).

[3] = tested on: IL-6, TNFα, IL-1β mRNAs; assay: RT-qPCR of proinflammatory cytokine mRNAs in LPS-treated RAW264.7 cells (Fig. S2c); format: cell-based, mouse; details: for IL-1β Relative expression AV / IL-6 Relative expression AV / TNFα Relative expression AV: RAW264.7 cells, LPS = 100, mean of n = 3
Experimental: as §1

[4] = tested on: IAV strain PR8; format: cell-based, type A influenza virus (IAV)
[5] = target: T1, CaMKII-KD (Rattus norvegicus, UniProt P11275); assay: Kinase assay: phosphorylation of autocamtide-2 by CaMKII-KD; format: biochemical
T1 construct: made in house; host or cells: Sf21 insect cells, baculovirus (pBacPAK8)

[6] = tested on: IAV strain PR8; format: cell-based, type A influenza virus (IAV); remark: listed apart in the source
[7] = tested on: IAV strain PR8; parameters: species or system BALB/c mice; details: mouse, in vivo
[8] = tested on: IFNα, IFNβ, Mx1 mRNAs; format: cell-based, canine
[9] = tested on: CCL5 and CXCL10 mRNAs; format: cell-based, canine
[10] = tested on: NP RNA of IAV strain PR8; format: cell-based, type A influenza virus (IAV)

T1 sequence (P11275 13-271 limits assumed): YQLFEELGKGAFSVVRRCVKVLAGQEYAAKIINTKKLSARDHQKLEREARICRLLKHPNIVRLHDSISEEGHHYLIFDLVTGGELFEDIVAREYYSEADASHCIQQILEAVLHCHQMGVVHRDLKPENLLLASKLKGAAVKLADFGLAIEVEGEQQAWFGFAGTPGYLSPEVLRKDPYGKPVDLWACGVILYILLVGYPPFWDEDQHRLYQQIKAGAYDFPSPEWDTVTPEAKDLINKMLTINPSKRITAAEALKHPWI

myr-Met-Ala-[no. 3 or 6 motif]-Ala [mM3, N-terminal myristoylated-M3 (myr-Met-Ala-[no. 3 motif]-Ala)]
inhibition of TNFα production [1]: inhibited TNFα production similarly to M6 | LPS-induced Thr286 autophosphorylation of CaMKII ([2]; RAW264.7, peptide 30 min then 10 ng/ml LPS 20 min, western blot): efficiently inhibited | Phosphorylation of CaMKII (ratio) AV ([2]; peptide 10µM, RAW264.7 cells, (-) = 1, mean of n = 3): 0.8346 | transcription of IL-6, TNFα and IL-1β ([3]; RAW264.7, peptide 30 min then 10 ng/ml LPS 3 h, RT-qPCR): efficiently inhibited | IL-1β Relative expression AV ([3]; peptide only (no LPS)): 0.006044 | IL-6 Relative expression AV ([3]; peptide only (no LPS)): 0.006603 | TNFα Relative expression AV ([3]; peptide only (no LPS)): 2.34 | IL-1β Relative expression AV ([3]; peptide+LPS): 16.8504 | IL-6 Relative expression AV ([3]; peptide+LPS): 27.8458 | TNFα Relative expression AV ([3]; peptide+LPS): 57.9321 | inhibitory effect on IAV cytopathicity, single cycle of infection [4]: greatest inhibitory effect on IAV cytopathicity at concentrations up to 3 µM

I: MARRILLLLLARHHAKKK[Ahx]KK-NH2 / II: MARRILLLLLARHHAKKK[Ahx]K / III: MARRILLLLLARHHAKKK[Ahx] / IV: MARRILLLLLARHHAKKK[Ahx] (amide I:20-IV:C, I:21-II:C, II:20-III:C) [T2]
IC50 [5]: 14.1 µM

CO/C1=C\C(C)=C\[C@@H](C)[C@@H](O)[C@@H](C)C/C(C)=C/C=C/[C@H](OC)[C@@H]([C@@H](C)[C@@H](O)[C@H](C)[C@@]2(O)C[C@@H](O)[C@H](C)[C@@H](C(C)C)O2)OC1=O [baf]
DiO positive vesicles (DiO/R18) Average [6]: 0.08663

CO/C1=C\C(C)=C\[C@@H](C)[C@@H](O)[C@@H](C)C/C(C)=C/C=C/[C@H](OC)[C@@H]([C@@H](C)[C@@H](O)[C@H](C)[C@@]2(O)C[C@@H](O)[C@H](C)[C@@H](C(C)C)O2)OC1=O [bafilomycin A1, reference compound]
fusion process / virus entry into cells [6]: efficiently inhibited virus entry into cells

CC[C@H](C)[C@H](NC(=O)[C@H](CCCNC(=N)N)NC(=O)[C@H](CCCNC(=N)N)NC(=O)[C@H](C)NC(=O)[C@@H](N)CCSC)C(=O)N[C@@H](CC(C)C)C(=O)N[C@@H](CC(C)C)C(=O)N[C@@H](CC(C)C)C(=O)N[C@@H](CC(C)C)C(=O)N[C@@H](CC(C)C)C(=O)N[C@@H](C)C(=O)N[C@@H](CC(C)C)C(=O)N[C@@H](CC(C)C)C(=O)N[C@@H](Cc1c[nH]cn1)C(=O)N[C@@H](C)C(=O)N[C@@H](CCCCN)C(=O)N[C@@H](CCCCN)C(=O)N[C@@H](CCCCN)C(=O)NCCCCCC(=O)O [M6] (H-MARRILLLLLALLHAKKK[Ahx]-OH)
IC50 ([5]; read-out: IC50): 12.3 µM

COc1ccc(S(=O)(=O)N(CCO)c2ccccc2CN(C)C/C=C/c2ccc(Cl)cc2)cc1 [KN-93]
protection from mortality [7]: provided no protection

O=C1c2c(O)c(=O)ccn2N([C@@H]2c3ccccc3SCc3c2ccc(F)c3F)[C@@H]2COCCN12 [BXA, Baloxavir acid]
expression of IFNα and β mRNAs early in infection [8]: rather increased the expression of both mRNAs | expression of IFNα and β mRNAs later in infection [8]: greatly reduced | infection-induced cytopathicity [4]: efficiently inhibited | expression of CXCL10 and CCL5 mRNAs [9]: also increased their expression | infection-induced expression of NP mRNA [10]: efficiently inhibited

I: MARRILLLLLALLHAKKK[Ahx]KK-NH2 / II: MARRILLLLLALLHAKKK[Ahx]K / III: MARRILLLLLALLHAKKK[Ahx] / IV: MARRILLLLLALLHAKKK[Ahx] (amide I:20-IV:C, I:21-II:C, II:20-III:C) [T6]
IC50 [5]: 32.2 µM

I: MARRILLLLLARLHAKKK[Ahx]KK-NH2 / II: MARRILLLLLARLHAKKK[Ahx]K / III: MARRILLLLLARLHAKKK[Ahx] / IV: MARRILLLLLARLHAKKK[Ahx] (amide I:20-IV:C, I:21-II:C, II:20-III:C) [T3]
IC50 [5]: 8.6 µM

I: MARRRLLLLLARHHAKKK[Ahx]KK-NH2 / II: MARRRLLLLLARHHAKKK[Ahx]K / III: MARRRLLLLLARHHAKKK[Ahx] / IV: MARRRLLLLLARHHAKKK[Ahx] (amide I:20-IV:C, I:21-II:C, II:20-III:C) [T1]
IC50 [5]: 2.4 µM

CSCC[C@H](N)C(=O)N[C@@H](C)C(=O)N[C@@H](CCCNC(=N)N)C(=O)N[C@@H](CCCNC(=N)N)C(=O)N[C@@H](CCCNC(=N)N)C(=O)N[C@@H](CC(C)C)C(=O)N[C@@H](CC(C)C)C(=O)N[C@@H](CC(C)C)C(=O)N[C@@H](CC(C)C)C(=O)N[C@@H](CC(C)C)C(=O)N[C@@H](C)C(=O)N[C@@H](CCCNC(=N)N)C(=O)N[C@@H](Cc1c[nH]cn1)C(=O)N[C@@H](Cc1c[nH]cn1)C(=O)N[C@@H](C)C(=O)N[C@@H](CCCCN)C(=O)N[C@@H](CCCCN)C(=O)N[C@@H](CCCCN)C(=O)NCCCCCC(=O)O [M1] (H-MARRRLLLLLARHHAKKK[Ahx]-OH)
IC50 ([5]; read-out: IC50): 29.4 µM

CC[C@H](C)[C@H](NC(=O)[C@H](CCCNC(=N)N)NC(=O)[C@H](CCCNC(=N)N)NC(=O)[C@H](C)NC(=O)[C@@H](N)CCSC)C(=O)N[C@@H](CC(C)C)C(=O)N[C@@H](CC(C)C)C(=O)N[C@@H](CC(C)C)C(=O)N[C@@H](CC(C)C)C(=O)N[C@@H](CC(C)C)C(=O)N[C@@H](C)C(=O)N[C@@H](CCCNC(=N)N)C(=O)N[C@@H](CC(C)C)C(=O)N[C@@H](Cc1c[nH]cn1)C(=O)N[C@@H](C)C(=O)N[C@@H](CCCCN)C(=O)N[C@@H](CCCCN)C(=O)N[C@@H](CCCCN)C(=O)NCCCCCC(=O)O [M3] (H-MARRILLLLLARLHAKKK[Ahx]-OH)
IC50 ([5]; read-out: IC50): 19.4 µM

CC[C@H](C)[C@H](NC(=O)[C@H](CCCNC(=N)N)NC(=O)[C@H](C)NC(=O)[C@@H](N)CCSC)C(=O)N[C@H](C(=O)N[C@@H](CC(C)C)C(=O)N[C@@H](CC(C)C)C(=O)N[C@@H](CC(C)C)C(=O)N[C@@H](CC(C)C)C(=O)N[C@@H](CC(C)C)C(=O)N[C@@H](C)C(=O)N[C@@H](CCCNC(=N)N)C(=O)N[C@@H](CC(C)C)C(=O)N[C@@H](Cc1c[nH]cn1)C(=O)N[C@@H](C)C(=O)N[C@@H](CCCCN)C(=O)N[C@@H](CCCCN)C(=O)N[C@@H](CCCCN)C(=O)NCCCCCC(=O)O)[C@@H](C)CC [M5] (H-MARIILLLLLARLHAKKK[Ahx]-OH)
IC50 ([5]; read-out: IC50): 11.1 µM

CC[C@H](C)[C@H](NC(=O)[C@H](CCCNC(=N)N)NC(=O)[C@H](CCCNC(=N)N)NC(=O)[C@H](C)NC(=O)[C@@H](N)CCSC)C(=O)N[C@@H](CC(C)C)C(=O)N[C@@H](CC(C)C)C(=O)N[C@@H](CC(C)C)C(=O)N[C@@H](CC(C)C)C(=O)N[C@@H](CC(C)C)C(=O)N[C@@H](C)C(=O)N[C@@H](CCCNC(=N)N)C(=O)N[C@@H](Cc1c[nH]cn1)C(=O)N[C@@H](Cc1c[nH]cn1)C(=O)N[C@@H](C)C(=O)N[C@@H](CCCCN)C(=O)N[C@@H](CCCCN)C(=O)N[C@@H](CCCCN)C(=O)NCCCCCC(=O)O [M2] (H-MARRILLLLLARHHAKKK[Ahx]-OH)
IC50 ([5]; read-out: IC50): 34 µM

Cc1nn(CC(F)(F)F)cc1Nc1ncc(Br)c(NCc2ccc(S(N)(=O)=O)cc2)n1 [GSK8612]
IAV-induced cytopathicity of MDCK cells, time of addition [4]: best when GSK8612 was added up to 3 h after infection
